# Source: patent US12077503B2, “Substituted cyclic amides and their use as herbicides” (FMC CORPORATION, priority 2015, dated 2024)
# Tests used:
# Assay type in all cases: in vivo
# [1] = tested on: giant foxtail (Setaria faberii); assay: Test A postemergence; details: Setaria faberi, post-emergence, 240 h, Postemergence, read-out: Foxtail, Giant plant response rating (0 to 100 scale)
# In short: (§1)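 Seeds sprayed preemergence with a directed soil spray, or plants at 2 to 10 cm height and one- to two-leaf stage sprayed postemergence, with test chemicals in a non-phytotoxic solvent mixture containing surfactant, in loam soil–sand blend. Injury rated visually against untreated controls after about 10 d in greenhouse, 0 (no effect) to 100 (complete control).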
# [2] = tested on: barnyardgrass (Echinochloa crus-galli); assay: Test A postemergence; details: Echinochloa crus-galli, post-emergence, 240 h, Postemergence
# In short: as §1
# [3] = tested on: ragweed (common ragweed, Ambrosia elatior); assay: Test A postemergence; details: Ambrosia artemisiifolia, post-emergence, 240 h, Postemergence, read-out: Ragweed plant response rating (0 to 100 scale)
# In short: as §1
# corn (Zea mays) = assay: Test A postemergence; details: Zea mays, post-emergence, 240 h, Postemergence, read-out: Corn plant response rating (0 to 100 scale)
# In short: as §1
# [4] = tested on: ryegrass, Italian (Italian ryegrass, Lolium multiflorum); assay: Test A postemergence; details: Lolium multiflorum, post-emergence, 240 h, Postemergence, read-out: Ryegrass, Italian plant response rating (0 to 100 scale)
# In short: as §1
# [5] = tested on: blackgrass (Alopecurus myosuroides); assay: Test A postemergence; details: Alopecurus myosuroides, post-emergence, 240 h, Postemergence, read-out: Blackgrass plant response rating (0 to 100 scale)
# In short: as §1
# [6] = tested on: pigweed (Amaranthus retroflexus); assay: Test A postemergence; details: Amaranthus retroflexus, post-emergence, 240 h, Postemergence, read-out: Pigweed plant response rating (0 to 100 scale)
# In short: as §1
# Kochia (Kochia scoparia) [7] = assay: Test A postemergence; details: Bassia scoparia, post-emergence, 240 h, Postemergence, read-out: Kochia plant response rating (0 to 100 scale)
# In short: as §1
# [8] = tested on: wheat (Triticum aestivum); assay: Test A postemergence; details: Triticum aestivum, post-emergence, 240 h, Postemergence, read-out: Wheat plant response rating (0 to 100 scale)
# In short: as §1
# [9] = tested on: Galium (catchweed bedstraw, Galium aparine); assay: Test A postemergence; details: Galium, post-emergence, 240 h, Postemergence, read-out: Galium plant response rating (0 to 100 scale)
# In short: as §1
# [10] = tested on: giant foxtail (Setaria faberii); assay: Test A preemergence; details: Setaria faberi, pre-emergence, 240 h, 0 to 100 scale where 0 is no effect and 100 is complete control, read-out: Foxtail, Giant plant response rating
# In short: as §1
# [11] = tested on: barnyardgrass (Echinochloa crus-galli); assay: Test A preemergence; details: Echinochloa crus-galli, pre-emergence, 240 h, 0 to 100 scale where 0 is no effect and 100 is complete control, read-out: Barnyardgrass plant response rating
# In short: as §1
# [12] = tested on: ragweed (common ragweed, Ambrosia elatior); assay: Test A preemergence; details: Ambrosia artemisiifolia, pre-emergence, 240 h, 0 to 100 scale where 0 is no effect and 100 is complete control, read-out: Ragweed plant response rating
# In short: as §1
# [13] = tested on: ryegrass, Italian (Italian ryegrass, Lolium multiflorum); assay: Test A preemergence; details: Lolium multiflorum, pre-emergence, 240 h, 0 to 100 scale where 0 is no effect and 100 is complete control, read-out: Ryegrass, Italian plant response rating
# In short: as §1
# [14] = tested on: pigweed (Amaranthus retroflexus); assay: Test A preemergence; details: Amaranthus retroflexus, pre-emergence, 240 h, 0 to 100 scale where 0 is no effect and 100 is complete control, read-out: Pigweed plant response rating
# Kochia (Kochia scoparia) [15] = assay: Test A preemergence; details: Bassia scoparia, pre-emergence, 240 h, 0 to 100 scale where 0 is no effect and 100 is complete control, read-out: Kochia plant response rating
# In short: as §1
# [16] = tested on: ducksalad (Heteranthera limosa); assay: Test B flooded paddy test; details: Heteranthera limosa, 250 g ai/ha, Flood; 0 to 100 scale where 0 is no effect and 100 is complete control; read-out: Ducksalad plant response rating
# In short: (§2)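 Evaluation by eye, against controls, occurred 13–15 d post-treatment in a greenhouse, using a 0 (no effect) to 100 (complete control) scale. Application was into the paddy water, 3 cm deep over the soil, on 2-leaf plants.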
# [17] = tested on: barnyardgrass (Echinochloa crus-galli); assay: Test B flooded paddy test; details: Echinochloa crus-galli, 250 g ai/ha, Flood; 0 to 100 scale where 0 is no effect and 100 is complete control; read-out: Barnyardgrass plant response rating
# In short: as §2
# [18] = tested on: sedge, umbrella (small-flower umbrella sedge, Cyperus difformis); assay: Test B flooded paddy test; details: Cyperus difformis, 250 g ai/ha, Flood; 0 to 100 scale where 0 is no effect and 100 is complete control; read-out: Sedge, Umbrella plant response rating
# In short: as §2
# rice (Oryra sativa) = assay: Test B flooded paddy test; details: Oryza sativa, 250 g ai/ha, Flood; 0 to 100 scale where 0 is no effect and 100 is complete control; read-out: Rice plant response rating
# In short: as §2
# [19] = 125 g ai/ha, visual rating about 10 d after treatment
# [20] = 31 g ai/ha, 0 is no effect, 100 is complete control
# [21] = 125 g ai/ha, preemergence, visual injury rating, approximately 10 d
smiles,measurement,setting,value
O=C(Nc1ccccc1F)C1C(=O)N(CC(F)F)CC1c1cccc(C(F)(F)F)c1 (stereo not drawn) [Compound 1293],pest or weed control at 125 g/ha,[1]; [19],0%
same,pest or weed control at 31 g/ha,[1]; [20],0%
same,pest or weed control at 125 g/ha,"[2]; 125 g ai/ha, visual rating about 10 d after treatment, read-out: Barnyardgrass plant response rating (0 to 100 scale, 0 no effect, 100 complete control)",20%
same,pest or weed control at 31 g/ha,"[2]; 31 g ai/ha, 0 is no effect, 100 is complete control, read-out: Barnyardgrass plant response rating (0 to 100 scale)",0%
same,pest or weed control at 125 g/ha,[3]; [19],0%
same,pest or weed control at 31 g/ha,[3]; [20],0%
same,plant injury at 125 g/ha,corn (Zea mays); [19],0%
same,plant injury at 31 g/ha,corn (Zea mays); [20],0%
same,pest or weed control at 125 g/ha,[4]; [19],0%
same,pest or weed control at 31 g/ha,[4]; [20],0%
same,pest or weed control at 125 g/ha,[5]; [19],0%
same,pest or weed control at 31 g/ha,[5]; [20],0%
same,pest or weed control at 125 g/ha,[6]; [19],0%
same,pest or weed control at 31 g/ha,[6]; [20],0%
same,pest or weed control at 125 g/ha,Kochia (Kochia scoparia) [7]; [19],0%
same,pest or weed control at 31 g/ha,Kochia (Kochia scoparia) [7]; [20],0%
same,plant injury at 125 g/ha,[8]; [19],0%
same,plant injury at 31 g/ha,[8]; [20],0%
same,pest or weed control at 125 g/ha,[9]; [19],0%
same,pest or weed control at 31 g/ha,[9]; [20],0%
same,pest or weed control at 31 g/ha,"[10]; 31 g ai/ha, Preemergence",0%
same,pest or weed control at 125 g/ha,[10]; [21],20%
same,pest or weed control at 31 g/ha,"[11]; 31 g ai/ha, Preemergence",0%
same,pest or weed control at 125 g/ha,[11]; [21],20%
same,pest or weed control at 31 g/ha,"[12]; 31 g ai/ha, Preemergence",0%
same,pest or weed control at 125 g/ha,[12]; [21],0%
same,pest or weed control at 31 g/ha,"[13]; 31 g ai/ha, Preemergence",0%
same,pest or weed control at 125 g/ha,[13]; [21],0%
same,pest or weed control at 31 g/ha,"[14]; 31 g ai/ha, Preemergence",0%
same,pest or weed control at 125 g/ha,[14]; [21],0%
same,pest or weed control at 31 g/ha,"Kochia (Kochia scoparia) [15]; 31 g ai/ha, Preemergence",0%
same,pest or weed control at 125 g/ha,Kochia (Kochia scoparia) [15]; [21],0%
same,pest or weed control at 250 g/ha,[16],0%
same,pest or weed control at 250 g/ha,[17],0%
same,pest or weed control at 250 g/ha,[18],0%
same,pest or weed control at 250 g/ha,rice (Oryra sativa),0%
